# Measurements published in US6699660B2, “Immediate early genes and methods of use therefor” (The Johns Hopkins University School of Medicine, priority 1998, dated 2004).
# Key:
# c-fos mRNA = assay: 3-NP ischemia model, Northern blot of total brain RNA; format: in vivo, rat; conditions: 3-NP 20 mg/kg i.p., three hours post-injection, total brain RNA without cerebellum; PSL - background; untreated 18.1
# L119 mRNA [1] = assay: as above; format: in vivo, rat; conditions: 3-NP 20 mg/kg i.p., three hours post-injection, total brain RNA without cerebellum; PSL - background; untreated 55.48
# Description: (§1) In another study, the expression pattern of L100 and L119 was determined using two models for ischemia. Briefly, neurons degenerate in brain and spinal cord after acute insults (e.g., stroke, cardiac arrest, and trauma) and during progressive, adult-onset diseases (e.g., amyotrophic lateral sclerosis, and Alzheimer's disease). Impaired energy metabolism plays an important role in neuronal cell death after brain ischemia, and apoptosis has been implicated in cell death induced by metabolic impairment. The irreversible inhibitor of succinate dehydrogenase in the mitochondria, 3-nitroproplonic acid (3-NP), inhibits oxidative phosphorylation and causes intracellular hypoxia. Thus, one model used to study ischemia involves intrastriatal injections of 3-NP, which is known to produce selective cell death similar to that observed in transient ischemia and Huntington's disease (McLaughlin et al., J. Neurochem 70:2406-2415 (1998)). The other model is a global ischemic paradigm that involves a 15 minute insult by complete occlusion of the carotis.
# (§2) In the 3-NP study, 220-300 g Wistar rats were intraperitoneally injected with 20 mg/kg body weight. Three hours post-injections, the brain was removed and total RNA prepared. In the global ischemia study, 220-300 g Wistar rats were received a 15 minute insult (bilateral occlusion of the Carotis/arterial pressure=35 mm Hg). One hour later, the rats received a reperfusion followed by immediate brain dissection and total RNA preparation. Untreated rats were used as controls for each study. Ten (10) μg of total rat brain RNA (without cerebellum) was loaded per lane and blotted. Probes were prepared from the 3′ untranslated regions of L100 and L119. The Northern blot data was collected using a Phosphoimager (FLA2000 Fuji, Tina software) and expressed as PSL—background.
# GAPDH mRNA = assay: as above; format: in vivo, rat; conditions: 3-NP 20 mg/kg i.p., three hours post-injection, total brain RNA without cerebellum; PSL - background; untreated 487.02
# Description: as §1, §2
# L100 mRNA [2] = assay: as above; format: in vivo, rat; conditions: 3-NP 20 mg/kg i.p., three hours post-injection, total brain RNA without cerebellum; PSL - background; untreated 30.95
# Description: as §1, §2
# R286 mRNA [3] = assay: PTZ-induced seizures, mRNA expression by Northern blot; format: in vivo, rat; conditions: hippocampus, 6 hour, vs PBS
# Description: (§3) PTZ-induced seizures is a model used to study epilepsy and ischemia. Briefly, 300-350 g male Sprague-Dawley rats were intrapertoneally injected with either 50 mg/kg body weight of PTZ or PBS. Total RNA samples from the hippocampus, cortex, and cerebellum were prepared from treated rats at 20 minutes, 6 hours, and 24 hours post-injection. This RNA then was used to measure mRNA expression by Northern blot analysis. Control mRNA measurements included c-fos and GAPDH. A Phosphoimager FLA2000 (Fuji) was used to analyze the data, which was expressed as the Integral PSL—background PSL (1D evaluation with Aida version 2.0).
# (§4) In addition, rats that developed seizures following intraperitoneal injection of kainate or PTZ were analyzed for the expression of R286 mRNA in addition to the mRNA of other LEG clones (Tables III and V).
# L119 mRNA [4] = assay: as above; format: in vivo, rat; conditions: for Fold increase in L119 mRNA expression upon PTZ treatment: 20 min, vs PBS; for L119 mRNA expression normalized to GADPH expression: 20 min after PTZ 50 mg/kg i.p., Integral PSL - background PSL
# Description: as §3
# R113 mRNA [5] = assay: as above; format: in vivo, rat; conditions: hippocampus, 6 hour, vs PBS
# Description: as §3
# L100 mRNA [6] = assay: as above; format: in vivo, rat; conditions: for Fold increase in L100 mRNA expression upon PTZ treatment: vs PBS; for L100 mRNA expression normalized to GADPH expression: Integral PSL - background PSL
# Description: as §3
# R286 mRNA [7] = assay: PTZ-induced seizures, in situ hybridization; format: in vivo, rat
# Description: (§5) For in situ hybridization, Dig-labeled cRNA probes were used as described elsewhere (Kuner et al., Science 283:5398 (1999)). Specifically, R286 mRNA expression was the highest in the cortex and hippocampus while being moderately high in the cerebellar granule cells, brainstem nuclei, several lateral and medial thalamic nuclei, olfactory bulb, and striatum. […] Briefly, a probe from the 3′ untranslated region of R286 was used to hybridize a Northern blot containing 2 μg polyA^+ RNA from hippocampus from brains of untreated rats as well as rats receiving the multiple MECS treatment. After one day of exposure using the phosphoimager FLA2000 (Fuji), an upregulation of R286 mRNA was detected in the hippocampus (3.72 fold induction) collected four hours after the last MECS treatment. An additional Northern blot analysis using 10 μg total RNA from hippocampus from untreated rats and rats receiving the multiple MECS treatment was performed.
# as §4
# R286 mRNA [8] = assay: kainate-induced seizures, in situ hybridization; format: in vivo, rat
# Description: as §5, §4
# L100 mRNA [9] = assay: kainate-induced seizures, in situ hybridization; format: in vivo, rat; conditions: six hours following kainate injection
# Description: For in situ hybridization, Dig-labeled cRNA probes were used as described elsewhere (Kuner et al., Science 283:5398 (1999)). […] Specifically, L100 mRNA expression was induced 17.2 fold by the multiple MECS treatment as determined from Northern blot data using total RNA from rat hippocampus (Table I).
# (§6) Kainate-induced seizures is a model used to study epilepsy. Briefly, 300-350 g male Sprague-Dawley rats were intrapertoneally injected with either 10 mg/kg body weight of kainate or PBS. RNA samples from the hippocampus, cortex, and cerebellum were prepared from treated rats at 1.5, 6, and 24 hours post-injection. This RNA then was used to measure mRNA expression by Northern blot and RT-PCR analysis. Control mRNA measurements included c-fos, GAPDH, NO-38, and ATF-4 for the Northern blot analysis, and Hsp70, c-jun, Zif268, c-fos, Clathrin, and β-actin for the RT-PCR analysis. A Phosphoimager FLA2000 (Fuji) was used to analyze the data, which was expressed as the Integral PSL—background PSL (1D evaluation with Aida version 2.0).
# L119 mRNA [10] = assay: kainate-induced seizures, mRNA expression by Northern blot and RT-PCR; format: in vivo, rat; conditions: for L119 mRNA expression normalized to GADPH expression: Integral PSL - background PSL; for Fold increase in L119 mRNA expression upon kainate treatment: vs PBS
# Description: as §6
# A013 mRNA = assay: as above; format: in vivo, rat; conditions: hippocampus, 1.5 hour, vs PBS
# Description: as §6
# L094 mRNA = assay: as above; format: in vivo, rat; conditions: hippocampus, 1.5 hour, vs PBS
# Description: as §6
# R113 mRNA [11] = assay: as above; format: in vivo, rat; conditions: hippocampus, 1.5 hour, vs PBS
# Description: as §6
# L100 mRNA [12] = assay: as above; format: in vivo, rat; conditions: for L100 mRNA expression normalized to GADPH expression: Integral PSL - background PSL; for Fold increase in L100 mRNA expression upon kainate treatment: vs PBS
# Description: as §6
# [13] = test system: R010 expression in PC12 cells; assay: NGF treatment of PC12 cells, R010 expression; format: cell-based
# [14] = cortex, 6 hour after kainate 10 mg/kg i.p.
# [15] = cortex, 24 hour after kainate 10 mg/kg i.p.
# [16] = hippocampus, 1.5 hour after kainate 10 mg/kg i.p.
# [17] = hippocampus, 6 hour after kainate 10 mg/kg i.p.
# [18] = hippocampus, 24 hour after kainate 10 mg/kg i.p.
compound,measurement,setting,value
"O=C(O)CC[N+](=O)[O-] [3-NP, 3-nitroproplonic acid]",c-fos mRNA expression after 3-NP treatment,c-fos mRNA,26.64
same,L119 mRNA expression after 3-NP treatment,L119 mRNA [1],41.94
same,GAPDH mRNA expression after 3-NP treatment,GAPDH mRNA,587.51
same,L100 mRNA expression after 3-NP treatment,L100 mRNA [2],43.82
"C1CCc2nnnn2CC1 [PTZ, pentylenetetrazole]",Fold increase in R286 mRNA expression upon PTZ treatment,R286 mRNA [3],2.6 fold
same,Fold increase in L119 mRNA expression upon PTZ treatment,L119 mRNA [4]; cortex,2.78 fold
same,L119 mRNA expression normalized to GADPH expression,L119 mRNA [4]; cortex,1605
same,Fold increase in L119 mRNA expression upon PTZ treatment,L119 mRNA [4]; hippocampus,2.82 fold
same,L119 mRNA expression normalized to GADPH expression,L119 mRNA [4]; hippocampus,965
same,Fold increase in R113 mRNA expression upon PTZ treatment,R113 mRNA [5],2.0 fold
same,expression of L100 mRNA when acute seizures were induced by PTZ treatment,L100 mRNA [6]; PTZ 50 mg/kg i.p.,strongly upregulated
same,Fold increase in L100 mRNA expression upon PTZ treatment,"L100 mRNA [6]; cortex, 20 min",2.84 fold
same,L100 mRNA expression normalized to GADPH expression,"L100 mRNA [6]; cortex, 20 min after PTZ 50 mg/kg i.p.",2719
same,L100 mRNA expression normalized to GADPH expression,"L100 mRNA [6]; cortex, 6 hour after PTZ 50 mg/kg i.p.",3740
same,Fold increase in L100 mRNA expression upon PTZ treatment,"L100 mRNA [6]; cortex, 6 hour",3.22 fold
same,L100 mRNA expression normalized to GADPH expression,"L100 mRNA [6]; cortex, 24 hour after PTZ 50 mg/kg i.p.",1825
same,Fold increase in L100 mRNA expression upon PTZ treatment,"L100 mRNA [6]; cortex, 24 hour",1.55 fold
same,Fold increase in L100 mRNA expression upon PTZ treatment,"L100 mRNA [6]; hippocampus, 20 min",3.1 fold
same,L100 mRNA expression normalized to GADPH expression,"L100 mRNA [6]; hippocampus, 20 min after PTZ 50 mg/kg i.p.",1637
same,L100 mRNA expression normalized to GADPH expression,"L100 mRNA [6]; hippocampus, 6 hour after PTZ 50 mg/kg i.p.",1992
same,Fold increase in L100 mRNA expression upon PTZ treatment,"L100 mRNA [6]; hippocampus, 6 hour",2.33 fold
same,L100 mRNA expression normalized to GADPH expression,"L100 mRNA [6]; hippocampus, 24 hour after PTZ 50 mg/kg i.p.",1903
same,Fold increase in L100 mRNA expression upon PTZ treatment,"L100 mRNA [6]; hippocampus, 24 hour",1.97 fold
same,R286 mRNA expression by in situ hybridization,R286 mRNA [7]; 20 minutes post-PTZ injection,no upregulation
same,R286 mRNA expression by in situ hybridization,"R286 mRNA [7]; 6 hours post-PZT injection, hippocampal pyramidal cell layer, cortex, thalamus, cerebellar Purkinje cell layer",mildly upregulated
C=C(C)[C@H]1CN[C@H](C(=O)O)[C@H]1CC(=O)O [kainate],R286 mRNA expression by in situ hybridization,R286 mRNA [8]; 1.5 hours post-kainate injection,no upregulation
same,R286 mRNA expression by in situ hybridization,"R286 mRNA [8]; 6 hours post-kainate injection, hippocampal pyramidal cell layer, cortex, thalamus, cerebellar Purkinje cell layer",mildly upregulated
same,L100 mRNA regulation by in situ hybridization,"L100 mRNA [9]; dentate gyrus, CA3 and CA4 of hippocampus, entorrhinal cortex, cingulum, fimbria",strong upregulation
same,L100 mRNA regulation by in situ hybridization,"L100 mRNA [9]; thalamic nuclei, temporal, parietal, frontal, medial orbital and cingulate cortex, cerebellar granule cells",Moderate upregulation
same,L119 mRNA expression normalized to GADPH expression,L119 mRNA [10]; [14],1262
same,L119 mRNA expression normalized to GADPH expression,L119 mRNA [10]; [15],505
same,L119 mRNA expression normalized to GADPH expression,L119 mRNA [10]; [16],69982
same,Fold increase in L119 mRNA expression upon kainate treatment,"L119 mRNA [10]; hippocampus, 1.5 hour",24.85 fold
same,L119 mRNA expression normalized to GADPH expression,L119 mRNA [10]; [17],11519
same,Fold increase in L119 mRNA expression upon kainate treatment,"L119 mRNA [10]; hippocampus, 6 hour",2.51 fold
same,L119 mRNA expression normalized to GADPH expression,L119 mRNA [10]; [18],12944
same,Fold increase in L119 mRNA expression upon kainate treatment,"L119 mRNA [10]; hippocampus, 24 hour",4.64 fold
same,Fold increase in A013 mRNA expression upon kainate treatment,A013 mRNA,9.8 fold
same,Fold increase in L094 mRNA expression upon kainate treatment,L094 mRNA,3.6 fold
same,Fold increase in R113 mRNA expression upon kainate treatment,R113 mRNA [11],2.0 fold
same,L100 mRNA expression normalized to GADPH expression,L100 mRNA [12]; [14],290
same,Fold increase in L100 mRNA expression upon kainate treatment,"L100 mRNA [12]; cortex, 6 hour",3.58 fold
same,L100 mRNA expression normalized to GADPH expression,L100 mRNA [12]; [15],131
same,Fold increase in L100 mRNA expression upon kainate treatment,"L100 mRNA [12]; cortex, 24 hour",1.52 fold
same,L100 mRNA expression normalized to GADPH expression,L100 mRNA [12]; [16],85251
same,Fold increase in L100 mRNA expression upon kainate treatment,"L100 mRNA [12]; hippocampus, 1.5 hour",18.44 fold
same,L100 mRNA expression normalized to GADPH expression,L100 mRNA [12]; [17],15444
same,Fold increase in L100 mRNA expression upon kainate treatment,"L100 mRNA [12]; hippocampus, 6 hour",1.97 fold
same,L100 mRNA expression normalized to GADPH expression,L100 mRNA [12]; [18],16551
same,Fold increase in L100 mRNA expression upon kainate treatment,"L100 mRNA [12]; hippocampus, 24 hour",4.20 fold
same,expression of L100 mRNA when acute seizures were induced by kainate treatment,L100 mRNA [12]; kainate 10 mg/kg i.p.,strongly upregulated
NGF: NGF used to treat PC12 cells,R010 expression in vitro,[13],rapidly induced
